Reference: patent publication US20260308158A1, “TARGETING RNAS ASSOCIATED WITH TAUOPATHIES WITH SMALL MOLECULES” (University of Florida Research Foundation, Incorporated, priority 2023, published 2026)
Like-named read-outs stand apart in the source and are kept apart here.

How the values were obtained:
[1] = Plasma and brain exposure in mice; format: in vivo, C57BL/6J mouse; conditions: mouse, po, 100 mg/kg p.o., C57BL/6J mice
Description: Quantitation of 2 in Mouse Plasma and Brain. Male C57BL/6J mice (n=3 per time point; 5-7 weeks) were orally administered with 2 (100 mg/kg) in a formulation of DMSO/Tween-80/H2O (5/5/90). After 2, 12, 24, and 48 h, mice were euthanized, and blood and brain were collected. Brains were immediately frozen. Blood was centrifuged to generate plasma and immediately frozen. On the day of analysis, brains were homogenized, mixed with a 5-times volume of acetonitrile, and filtered. The plasma was also filtered. Drug levels were determined by mass spectrometry using an ABSciex 5500 mass spectrometer with multiple reaction monitoring. Compound 2 was detected using the mass transition 435->236.

[2] = tested on: WT MAPT mini-gene (exon 10 splicing); assay: 4R/3R MAPT mRNA by RT-qPCR, HeLa cells transfected with WT mini-gene; format: cell-based
Description: RNA Isolation and Real-Time Quantitative PCR (RT-qPCR). HeLa cells were treated as described in the Luciferase Reporter assay to Study Exon 10 Alternative Splicing. LAN5 cells were seeded in 12-well plates at 0.2×10^6 cells per well, treated with compound or ASO, and incubated for 48 h. Compound stocks prepared in DMSO and ASO stocks prepared in water were diluted in growth medium and added to cells. Total RNA was extracted from cells and analyzed via RT-qPCR to determine levels of 3R and 4R tau mRNA. In brief, the cells were washed with 1×DPBS and then lysed in the well using 300 μL of Lysis Buffer provided in a Quick-RNA MiniPrep kit (Zymo Research), which was used to extract total RNA per the manufacturer's protocol including the on-column DNase I digestion. The concentration of total RNA was measured by NanoDrop 2000 (Thermo Fisher Scientific). Only samples with OD260/OD280>1.8 were carried forward for analysis. Reverse transcription (RT) was carried out on 200 ng of total RNA using a qScript cDNA synthesis kit (QuantaBio) in a total volume of 10 μL according to the manufacturer's protocol. […] 4R/3R ratio were analyzed using ΔΔCt method using Equation 2: […]

COc1cc(N)ncc1CCCN(C)CCCn1cnc2c3ccccc3n(C)c2c1=O [Compound 2, 3-(3-((3-(6-amino-4-methoxypyridin-3-yl)propyl)(methyl)amino)propyl)-5-methyl-3,5-dihydro-4H-pyrimido[5,4-b]indol-4-one]
concentration at 48 h ([1]; brain, read-out: brain concentration): 2900 ± 1600 nM
concentration at 48 h ([1]; plasma, read-out: plasma concentration): 500 ± 300 nM
PSI10 (PSI of MAPT exon 10) vs vehicle ([2]; HeLa, WT mini-gene): downregulated
inhibition at 1.5 µM ([2]; Homo sapiens, 2 at 1.5 μM, 48 h, HeLa WT mini-gene, read-out: reduction of 4R/3R ratio (mRNA)): 41 ± 3%
